From ChEMBL document CHEMBL1201862, “PubChem BioAssay data set” (2004)
Activity calls are given as the source filed them.

Tests used:
[1] = NIH-3T3 fibroblast cytotoxicity, dose response, cytotoxicity control, cell-based, fluorescence, Alamar Blue, secondary assay (AID 2327); format: functional;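 further: NIH-3T3 mouse fibroblasts cultured with fluconazole at 8 µg/mL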
[2] = system: Streptococcus sp. 'group A'; assay: Streptococcus pyogenes SK(-)GAS viability under kanamycin – luminescence, BacTiterGlo, confirmation, counter-screen for streptokinase expression inhibitor project, dose response (AID 1900); format: functional, organism-based
[3] = target: T1, Heat shock factor protein 1 (Mus musculus, UniProt P38532); assay: decrease of HSF1-responsive luciferase luminescence – cell-based, NIH3T3, dose retest, confirmation (AID 2382); format: functional;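 further: NIH3T3 fibroblasts with HSF1-driven luciferase reporter stressed by proteasome inhibitor MG132; luminescence from HSF1-driven luciferase expression after 8 hours of MG132 stress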
T1 sequence (P38532 whole entry): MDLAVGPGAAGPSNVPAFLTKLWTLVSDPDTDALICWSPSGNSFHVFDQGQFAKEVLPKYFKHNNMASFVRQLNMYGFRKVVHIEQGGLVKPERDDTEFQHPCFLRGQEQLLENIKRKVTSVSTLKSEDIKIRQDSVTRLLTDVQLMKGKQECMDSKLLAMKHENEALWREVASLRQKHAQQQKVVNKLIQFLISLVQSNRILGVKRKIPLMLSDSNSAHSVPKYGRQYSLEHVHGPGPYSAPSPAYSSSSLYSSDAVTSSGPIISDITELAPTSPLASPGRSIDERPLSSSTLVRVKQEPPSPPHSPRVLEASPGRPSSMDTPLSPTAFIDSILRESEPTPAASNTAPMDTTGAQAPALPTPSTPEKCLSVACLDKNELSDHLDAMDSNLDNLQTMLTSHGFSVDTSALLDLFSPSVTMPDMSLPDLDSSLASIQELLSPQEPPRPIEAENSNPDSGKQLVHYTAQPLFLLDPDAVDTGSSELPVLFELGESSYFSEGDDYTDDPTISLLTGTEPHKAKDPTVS

[4] = fluconazole-exposed Candida albicans growth modulators – fluorescence, retest, confirmation (AID 2467); format: functional, cell-based
[5] = Trypanosoma cruzi growth suppression in host cells – NIH3T3 host cells, beta-gal luminescence, confirmation (AID 2044); format: functional, cell-based;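 further: intracellular parasites grown in NIH/3T3 mouse fibroblasts as host cells; luminescent beta-galactosidase reporter signal from transgenic T. cruzi replicating inside host cells; inhibitors lower the luminescence signal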
[6] = viability of PTEN-deleted HCT116 cells – cell-based, HCT116 PTEN knockout, dose response (AID 1047); format: functional;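 further: HCT116 colon tumor cells with PTEN knocked out; cells exposed to compound for 60 hours before readout; potency for loss of cell viability measured by luminescence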
[7] = target: Heat shock protein HSP 90-alpha (Homo sapiens, UniProt P07900); assay: Luminescence-based dose response biochemical high throughput screening assay for inhibitors of the Heat Shock Protein 90 (HSP90). [Related pubchem assays: 1831 (Summary AID.), 1846 (Confirmation screen.), 1789 (Primary screen.)]
[8] = viability of HCT116 lacking mutant beta-catenin – cell-based, human colon tumor, dose response (AID 1045); format: functional;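 further: HCT116 colon tumor cells with beta catenin knocked out; cells exposed to compound for 60 hours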
Streptococcus = assay: GAS UMAA2166 growth inhibition – luminescence, BacTiterGlo, counter-screen for streptokinase expression inhibitor project, dose response (AID 1915); format: functional, organism-based;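 further: potency for reduction of bacterial viability or growth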
[9] = HepG2 cell cytotoxicity, dose response, cytotoxicity control for non-replicating M. tuberculosis project (AID 489018); format: functional; settings: Mycobacterium tuberculosis
[10] = Vero E6 cell cytotoxicity, dose response, cytotoxicity control for non-replicating M. tuberculosis project, secondary assay (AID 492998); format: functional, VeroE6; settings: Vero C1008
Nonstructural protein 1 = Nonstructural protein 1 (Influenza A virus, UniProt Q194T2); format: functional, Influenza A virus (A/California/07/2009(H1N1))
cells = format: functional
Protein RecA = target: T2, Protein RecA (Mycobacterium tuberculosis, UniProt P9WHJ3); assay: Fluorescence Cell-Free Homogeneous Dose Retest to Identify Inhibitors of RecA-Intein Splicing Activity. [Related pubchem assays (depositor defined):AID2097, AID2223, AID489010, AID492950]; format: functional
T2 sequence (P9WHJ3 whole entry): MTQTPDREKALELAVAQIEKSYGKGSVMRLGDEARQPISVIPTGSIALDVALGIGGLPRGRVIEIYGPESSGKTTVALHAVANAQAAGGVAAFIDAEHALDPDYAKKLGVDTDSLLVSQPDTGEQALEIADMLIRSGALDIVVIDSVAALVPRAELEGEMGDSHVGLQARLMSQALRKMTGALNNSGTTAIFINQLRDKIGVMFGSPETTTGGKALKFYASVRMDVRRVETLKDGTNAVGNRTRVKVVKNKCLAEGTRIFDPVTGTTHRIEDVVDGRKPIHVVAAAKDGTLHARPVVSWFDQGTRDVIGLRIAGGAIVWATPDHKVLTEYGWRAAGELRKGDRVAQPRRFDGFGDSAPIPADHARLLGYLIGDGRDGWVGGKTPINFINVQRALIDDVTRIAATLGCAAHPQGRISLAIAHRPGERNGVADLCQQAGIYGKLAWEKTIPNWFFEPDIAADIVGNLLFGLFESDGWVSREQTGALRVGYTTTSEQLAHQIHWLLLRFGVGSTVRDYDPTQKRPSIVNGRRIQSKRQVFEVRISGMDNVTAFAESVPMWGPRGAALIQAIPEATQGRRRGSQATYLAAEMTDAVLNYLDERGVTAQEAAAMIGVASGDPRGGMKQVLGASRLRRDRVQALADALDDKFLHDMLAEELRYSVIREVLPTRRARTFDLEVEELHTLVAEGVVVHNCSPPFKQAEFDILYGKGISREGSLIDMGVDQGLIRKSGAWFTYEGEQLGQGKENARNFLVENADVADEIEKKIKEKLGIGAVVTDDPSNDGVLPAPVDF

INS1 = assay: INS-1E survival protection against cytokine death – cell-based, luminescence, retest, dose response (AID 449756); format: functional; settings: Rattus norvegicus;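 further: cell death triggered by IL-1 beta plus TNF-alpha plus IFN-gamma mixture; protective hits raise ATP signal compared with cytokine alone wells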

Nonstructural protein 1, sequence (Q194T2 whole entry): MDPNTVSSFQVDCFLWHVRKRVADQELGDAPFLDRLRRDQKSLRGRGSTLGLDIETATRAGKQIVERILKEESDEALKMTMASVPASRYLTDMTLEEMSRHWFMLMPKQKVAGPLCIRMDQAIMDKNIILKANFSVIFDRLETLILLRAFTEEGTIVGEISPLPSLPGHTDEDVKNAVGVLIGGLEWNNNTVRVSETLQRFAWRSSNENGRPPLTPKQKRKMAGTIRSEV

O=C1C(Nc2ccccc2)=C/C(=N/S(=O)(=O)c2cccs2)c2ccccc21
inconclusive: EC50 [1] 2660 nM
active: EC50 [2] 2810 nM | EC50 [3] 1090 nM | EC50 [4] 1350 nM | EC50 [5] 1140 nM | EC50 [6] 4130 nM | IC50 [7] 348 nM | EC50 [8] 4630 nM | EC50 (Streptococcus) 4210 nM | CC50 [9] 13900 nM | CC50 [10] 7430 nM | IC50 (Nonstructural protein 1) 9040 nM | IC50 (cells) 14200 nM | EC50 (Protein RecA) 143 nM | AC50 (INS1) 907 nM
